In patent US20160304547A1, “MACROLIDE COMPOUND” (PULIKE BIOLOGICAL ENGINEERING, INC, priority 2013, published 2016) one finds MIC and responders data, which are given here for four compounds.

SMILES strings stand for the structures. In brackets after ≈: the same amount, converted by molar mass. A value given as a limit tells only on which side of the number the result lay.

The test system of experiment [1] is Staphylococcus aureus CVCC26003. In words: MIC by mini broth dilution technique (in vitro susceptibility). In kind it is cell-based. As to conditions: Staphylococcus aureus CVCC26003; broth dilution; read-out: MIC values Staphylococcus aureus CVCC26003. Here is the method: (§1) in vitro tests of susceptibility of the compounds according to the present disclosure against bacterial strains commonly used in laboratories. In accordance with the Performance Standards for Antimicrobial Disk Susceptibility Tests: Approved Standard published by the US National Committee for Clinical Laboratory Standards, the antibactetial activities of compounds prepared according to examples 5 to 187 were tested. The MICs (minimum inhibitory concentration) of the medicaments prepared according to the examples on the following bacterial strains were measured through mini broth dilution technique. Staphylococcus aureus CVCC26003, Streptococcus equines CVCC556. Actinobacillus pleuropneumoniae CVCC262, Haemophilus parasuis, and Pasteurella multocida CVCC399, which were purchased from the Control Institute of Veterinary Bioproducts and Pharmaceuticals, China. Liquid culture medium: CAMHB. […] Solid culture medium: NINA prepared according to the specification of the final product. The strains were taken out of a regrigerator at −20° C. to be revived, and were spreaded by streaking on the solid culture medium with an inoculating loop. The inoculated culture medium was cultured at 35° C. in a constant temperature incubator for 20 h. Monoclonal antibodies were selected from a well-grown culture plate and streaked on the solid culture medium. The inoculated culture medium was cultured at 35° C. in the constant temperature incubator for 20 h. […] A 96-well plate was used, and 100 μl of DMSO was added into each of wells 2 to 11, and 200 μl of ready-prepared medicament solution was added into the 1st well, 100 μl of the medicament solution was extracted from the 1st well and added into the 2nd well. Double dilution was performed until the 11th well, thereby forming 11 gradients. In this case, compound of parent plate was prepared. 3 μl of double diluted medicament solution was extracted with a 12-channel pipettor and added into wells 1-11 of a new disposable 96-well culture plate. The 12th well thereof is a controll well. For each medicament, there are two adjacent rows which are parallel. The transferred compound plate was reserved for later use. […] The dilution ratio was recorded, and the bacterial liquid for the tests was diluted according to the recorded dilution ratio. Subsequently, the bacterial suspension and the liquid culture medium were diluted in the proportion of 1:200. The diluted solution was reserved for later use.
A general note: In broth dilution the organism is exposed to a series of concentrations in liquid medium.

Experiment [2] concerns Streptococcus pneumoniae CMCC 31203. In words: In vivo antibacterial test, survival of infected BALB/c mice. The conditions noted are these: CMCC31203, sc, 168 h; BALB/c mice infected i.p. with Streptococcus pneumoniae; 5 mg per kg s.c. via neck for 3 consecutive days; deaths recorded until the seventh day; read-out: Animal survival rate.
The subject of the next experiment is Haemophilus parasuis. In words: MIC by mini broth dilution technique (in vitro susceptibility). Type of experiment: cell-based. The conditions noted are these: Glaesserella parasuis; Haemophilus parasuis; broth dilution; read-out: MIC values Haemophilus parasuis. Here is the method:
as §1, with “medium:” for “medium: CAMHB.”, “NINA prepared according to the specification of the final product.” left out

The test system of experiment [3] is Actinobacillus pleuropneumoniae CVCC262. The description is as above. As to conditions: Actinobacillus pleuropneumoniae CVCC262; broth dilution; read-out: MIC values Actinobacillus pleuropneumoniae CVCC262. Type of experiment: cell-based. Here is the method: as §1, with “medium:” for “medium: CAMHB.”, “NINA prepared according to the specification of the final product.” left out

Experiment [4] concerns Streptococcus equines CVCC556. The experiment is described as above. Type of experiment: cell-based. As to conditions: Streptococcus equines CVCC556; broth dilution; read-out: MIC values Streptococcus equines CVCC556. As for the experimental part: as §1, with “medium:” for “medium: CAMHB.”, “NINA prepared according to the specification of the final product.” left out
The test system of experiment [5] is Pasteurella multocida CVCC399. The experiment is described as above. Type of experiment: cell-based. The conditions noted are these: Pasteurella multocida CVCC399; broth dilution; read-out: MIC values Pasteurella multocida CVCC399. Here is the method: as §1, with “medium:” for “medium: CAMHB.”, “NINA prepared according to the specification of the final product.” left out

`CC[C@@H]1OC(=O)[C@H](C)[C@H](OC2C[C@@](C)(OC)[C@](O)(CNC(C)(C)C)[C@H](C)O2)[C@@H](C)[C@@H](O[C@@H]2O[C@H](C)C[C@H](N(C)C)[C@H]2O)[C@](C)(O)C[C@@H](C)NC[C@@H](C)[C@H](O)[C@]1(C)O` (stereo partly drawn) [syzx-14]: the MIC – broadly, the smallest concentration in the dilution series that meets the test's criterion for growth inhibition – in experiment [1] was at most 0.25 µg/mL; with Haemophilus parasuis it was at most 0.25 µg/mL; in experiment [3], 0.5 µg/mL (≈ 0.61 µM); in experiment [4], at most 0.25 µg/mL; in experiment [5], 0.25 µg/mL (≈ 0.305 µM). Also, the responders at 5 mg/kg in experiment [2] was 70%.
`CC[C@@H]1OC(=O)[C@H](C)[C@H](OC2C[C@@](C)(OC)[C@](O)(CNCC3CC3)[C@H](C)O2)[C@@H](C)[C@@H](O[C@@H]2O[C@H](C)C[C@H](N(C)C)[C@H]2O)[C@](C)(O)C[C@@H](C)NC[C@@H](C)[C@H](O)[C@]1(C)O` (stereo partly drawn) [syzx-17, (2R,3S,4R,5S,8R,10R,11R,12S,13S,14R)-13-[(2,6-dideoxy-3-C-methyl-3-O-methyl-4-C-[(cyclopropylmethylamino)methyl]-α-L-ribopyranosyl)oxy]-2-ethyl-3,4,10-trihydroxy-3,5,8,10,12,14-hexamethyl-11-[[3,4,6-trideoxy-3-(dimethylamino)-β-D-xylo-hexopyranosy]oxy]-1-oxa-7-azacyclopentadecan-15-one]: the minimal inhibitory concentration (MIC) was at most 0.25 µg/mL in experiment [1]; at most 0.25 µg/mL in the experiment with Haemophilus parasuis; 2 µg/mL (≈ 2.44 µM) in experiment [3]; at most 0.25 µg/mL in experiment [4]; 0.25 µg/mL (≈ 0.306 µM) in experiment [5]. Moreover, in experiment [2], the responders at 5 mg/kg amounted to 70%.
Turning to `CC[C@@H]1OC(=O)[C@H](C)[C@H](OC2C[C@@](C)(OC)[C@](O)(CN(CC)CC)[C@H](C)O2)[C@@H](C)[C@@H](O[C@@H]2O[C@H](C)C[C@H](N(C)C)[C@H]2O)[C@](C)(O)C[C@@H](C)NC[C@@H](C)[C@H](O)[C@]1(C)O` (stereo partly drawn) [syzx-3, (2R,3S,4R,5S,8R,10R,11R,12S,13S,14R)-13-[(2,6-dideoxy-3-C -methyl-3-O-methyl-4-C-[(diethylamino)methyl]-α-L-ribopyranosyl)oxy]-2-ethyl-3,4,10-trihydroxy-3,5,8,10,12,14-hexamethyl-11-[[3,4,6-trideoxy-3-(dimethylamino)-β-D-xylo-hexopyranosy]oxy]-1-oxa-7-azacyclopentadecan-15-one], the MIC in experiment [1] was 0.5 µg/mL (≈ 0.61 µM); in the experiment with Haemophilus parasuis it was 0.125 µg/mL (≈ 0.152 µM); in experiment [3] it was 1 µg/mL (≈ 1.22 µM); in experiment [4], 0.125 µg/mL (≈ 0.152 µM); in experiment [5], 0.125 µg/mL (≈ 0.152 µM). The responders at 5 mg/kg in experiment [2] was 70%.
`CC[C@@H]1OC(=O)[C@H](C)[C@H](OC2C[C@@](C)(OC)[C@](O)(CNC3CCCC3)[C@H](C)O2)[C@@H](C)[C@@H](O[C@@H]2O[C@H](C)C[C@H](N(C)C)[C@H]2O)[C@](C)(O)C[C@@H](C)NC[C@@H](C)[C@H](O)[C@]1(C)O` (stereo partly drawn) [syzx-30, (2R,3S,4R,5S,8R,10R,11R,12S,13S,14R)-13-[(2,6-dideoxy-3-C-methyl-3-O-methyl-4-C-[(cyclopentylamino)-methyl]-α-L-ribopyranosyl)oxy]-2-ethyl-3,4,10-trihydroxy-3,5,8,10,12,14-hexamethyl-11-[[3,4,6-trideoxy-3-(dimethylamino)-β-D-xylo-hexopyranosy]oxy]-1-oxa-7-azacyclopentadecan-15-one]: the MIC in experiment [1] was at most 0.25 µg/mL; in the experiment on Haemophilus parasuis, 0.5 µg/mL (≈ 0.601 µM); in experiment [3] it was 0.5 µg/mL (≈ 0.601 µM); in experiment [4], at most 0.25 µg/mL; in experiment [5], at most 0.25 µg/mL. Further, the responders at 5 mg/kg in experiment [2] stood at 80%.
